For 13 molecules, EC50, DC50 and Emax results are on record in patent US20250325677A1, “STAT6 DEGRADERS” (Gilead Sciences, Inc., priority 2024, published 2025).

As usually defined, the EC50 is the concentration at which the effect is half-maximal. One may read the DC50 as the midpoint of the concentration-degradation curve. A word on the Emax: it is the maximal effect, on the per cent scale that the assay sets.

Read-outs that look alike come from different tables or passages of the source.

In one assay the test system is eotaxin-3 release. The experiment in a line: Human whole blood eotaxin-3 assay (IL-4 stimulated). Conditions: human whole blood. Format: cell-based. How it is done: Human Whole Blood Eotaxin-3 Assay
This was a human whole blood assay using recombinant human Interleukin 4 to stimulate the blood and measuring the ability of the test compounds to inhibit eotaxin-3 release. Compounds or media were added to the wells and incubated together with human whole blood for 120 minutes at 37° C. Subsequently, recombinant IL-4 was added at a final concentration of 0.4 nM. The plates were incubated for 48 hours.
Test compounds which inhibited eotaxin-3 release upon stimulation with human IL-4 (E. coli) interfered with the signaling in human whole blood are expected to have activity in human beings. […] The EC50 value indicates at which concentration test compounds were active and in inhibiting the eotaxin-3 release. As eotaxin-3 release is down-stream of STAT6 signaling both STAT6 inhibitors and STAT6 degraders are active in this assay.
The data from the human whole blood eotaxin-3 assay is shown below for Examples 3e27, 3e50, 3e17, and 3e51 (where the effect in % is plotted against the test concentration in M on a log-scale).

Another assay has as its target STAT6 (Homo sapiens (Human), UniProt P42226). The experiment in a line: STAT6 degrader assay (HiBiT, HeLa LgBiT clone 4.14). It counts as cell-based. Conditions: HeLa LgBiT clone 4.14, 4-24 h; geometric mean; given for compounds with >80% Emax; read-out: STAT6 degradation DC50. The procedure, abridged: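 HeLa LgBiT clone 4.14 cells with HiBiT knocked into endogenous STAT6 were treated with compound for 4-24 h at 37° C. Luminescence after Nano-GLO substrate (0.5 h) measured remaining STAT6; 50 μM terfenadine wells defined 100% degradation, and DC50 (nM) was derived.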

Setting [1] is: IL-4 0.4 nM, 48 hours, geometric mean, given for compounds with >80% Emax, read-out: Eotaxin-3 EC50.

Sequence of STAT6 (P42226 whole entry): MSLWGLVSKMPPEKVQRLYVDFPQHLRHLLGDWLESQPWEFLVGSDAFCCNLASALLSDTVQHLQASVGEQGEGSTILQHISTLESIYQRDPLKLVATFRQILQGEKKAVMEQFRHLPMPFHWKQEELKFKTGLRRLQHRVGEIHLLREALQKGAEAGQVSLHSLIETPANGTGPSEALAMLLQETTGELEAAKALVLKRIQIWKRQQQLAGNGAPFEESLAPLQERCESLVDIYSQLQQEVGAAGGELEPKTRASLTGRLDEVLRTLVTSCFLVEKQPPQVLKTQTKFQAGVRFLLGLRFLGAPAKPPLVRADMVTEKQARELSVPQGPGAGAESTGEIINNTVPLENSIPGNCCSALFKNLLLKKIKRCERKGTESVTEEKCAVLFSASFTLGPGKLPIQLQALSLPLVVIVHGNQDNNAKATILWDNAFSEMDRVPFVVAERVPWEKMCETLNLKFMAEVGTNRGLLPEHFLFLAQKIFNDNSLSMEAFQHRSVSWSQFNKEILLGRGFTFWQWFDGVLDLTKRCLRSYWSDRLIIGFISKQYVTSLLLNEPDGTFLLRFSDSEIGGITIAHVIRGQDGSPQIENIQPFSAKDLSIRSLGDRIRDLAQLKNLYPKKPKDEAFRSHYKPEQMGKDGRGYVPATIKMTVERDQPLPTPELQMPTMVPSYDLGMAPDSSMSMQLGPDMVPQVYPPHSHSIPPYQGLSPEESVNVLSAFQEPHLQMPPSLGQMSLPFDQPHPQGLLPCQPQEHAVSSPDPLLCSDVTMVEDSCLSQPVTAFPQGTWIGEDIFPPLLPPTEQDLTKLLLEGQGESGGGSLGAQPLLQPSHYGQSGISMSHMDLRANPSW

In the case of `C[C@@H](c1cc2c(-c3ccc(N)nc3)ccnc2n1C)N1CCC(c2ccc(C(=O)N3CCC(CN4CCN(Cc5cc6c(cc5Cl)n(C5CCC(=O)NC5=O)c(=O)n6C)CC4)CC3)cc2)CC1` (stereo partly drawn) [Example 3e30, 3-(5-((4-((1-(4-(1-((S)-1-(4-(6-aminopyridin-3-yl)-1-methyl-1H-pyrrolo[2,3-b]pyridin-2-yl)ethyl)piperidin-4-yl)benzoyl)piperidin-4-yl)methyl)piperazin-1-yl)methyl)-6-chloro-3-methyl-2-oxo-2,3-dihydro-1H-benzo[d]imidazol-1-yl)piperidine-2,6-dione], in the assay with eotaxin-3 release (setting [1]), the EC50 stood at 36.9 nM. For the same molecule, at STAT6, the DC50 was 7.2 nM.
In the case of `C[C@H]1CN(Cc2ccc3c(c2)C(C)(C)C(=O)N3[C@@H]2CCC(=O)NC2=O)CCN1CC1CCN(C(=O)c2ccc(C3CCN([C@@H](C)c4cc5c(-c6ccc(N)nc6)ccnc5n4C)CC3)cc2)CC1` [Example 3h32, (R)-3-(5-(((S)-4-((1-(4-(1-((S)-1-(4-(6-aminopyridin-3-yl)-1-methyl-1H-pyrrolo[2,3-b]pyridin-2-yl)ethyl)piperidin-4-yl)benzoyl)piperidin-4-yl)methyl)-3-methylpiperazin-1-yl)methyl)-3,3-dimethyl-2-oxoindolin-1-yl)piperidine-2,6-dione], the EC50 with eotaxin-3 release (setting [1]) amounted to 22.4 nM. Besides, the DC50 on STAT6 was determined as 2.9 nM.
`COCc1nc2cc(-c3ccnc4c3cc(CN3CCC(c5ccc(C(=O)N6CCC(CN7CCN(Cc8ccc9c(c8)n(C)c(=O)n9C8CCC(=O)NC8=O)CC7)CC6)cc5)CC3)n4C)ccc2[nH]1` (stereo not shown) [Example 3e3, 3-(5-((4-((1-(4-(1-((4-(2-(methoxymethyl)-1H-benzo[d]imidazol-5-yl)-1-methyl-1H-pyrrolo[2,3-b]pyridin-2-yl)methyl)piperidin-4-yl)benzoyl)piperidin-4-yl)methyl)piperazin-1-yl)methyl)-3-methyl-2-oxo-2,3-dihydro-1H-benzo[d]imidazol-1-yl)piperidine-2,6-dione]: the EC50 with eotaxin-3 release (setting [1]) is 14.4 nM. Also, at STAT6, the DC50 is 0.8 nM.
In the case of `C[C@@H](c1cc2c(-c3ccc(N)nc3)ccnc2n1C)N1CCC(c2ccc(C(=O)N3CCC(CN4CCN(Cc5ccc6c(c5)n(C)c(=O)n6C5CCC(=O)NC5=O)C[C@@H]4C(F)(F)F)CC3)cc2)CC1` (stereo partly drawn) [Example 3e42, 3-(5-(((R)-4-((1-(4-(1-((S)-1-(4-(6-aminopyridin-3-yl)-1-methyl-1H-pyrrolo[2,3-b]pyridin-2-yl)-ethyl)piperidin-4-yl)benzoyl)piperidin-4-yl)methyl)-3-(trifluoromethyl)piperazin-1-yl)methyl)-3-methyl-2-oxo-2,3-dihydro-1H-benzo[d]imidazol-1-yl)piperidine-2,6-dione], in the assay on eotaxin-3 release (setting [1]), the EC50 came out at 3.4 nM. The DC50 at STAT6 amounted to 1.8 nM.
Consider `C[C@H]1CN(Cc2ccc3c(c2)n(C)c(=O)n3C2CCC(=O)NC2=O)CCN1CC1CCN(C(=O)c2ccc(C3CCN([C@@H](C)c4cc5c(-c6ccc(N)cn6)ccnc5n4C)CC3)cc2)CC1` (stereo partly drawn) [Example 3e56, 3-(5-(((S)-4-((1-(4-(1-((S)-1-(4-(5-aminopyridin-2-yl)-1-methyl-1H-pyrrolo[2,3-b]pyridin-2-yl)ethyl)piperidin-4-yl)benzoyl)piperidin-4-yl)methyl)-3-methylpiperazin-1-yl)methyl)-3-methyl-2-oxo-2,3-dihydro-1H-benzo[d]imidazol-1-yl)piperidine-2,6-dione], for which the EC50 in the assay with eotaxin-3 release (setting [1]) is 2.6 nM. For the same molecule, the DC50 at STAT6 is 0.4 nM.
As for `C[C@H]1CN(Cc2cc3c(cc2F)N(C2CCC(=O)NC2=O)C(=O)C3(C)C)CCN1CC1CCN(C(=O)c2ccc(C3CCN([C@@H](C)c4cc5c(-c6ccc(N)nc6)ccnc5n4C)CC3)cc2)CC1` (stereo partly drawn) [Example 3h35, 3-(5-(((S)-4-((1-(4-(1-((S)-1-(4-(6-aminopyridin-3-yl)-1-methyl-1H-pyrrolo[2,3-b]pyridin-2-yl)ethyl)piperidin-4-yl)benzoyl)piperidin-4-yl)methyl)-3-methylpiperazin-1-yl)methyl)-6-fluoro-3,3-dimethyl-2-oxoindolin-1-yl)piperidine-2,6-dione], the EC50 in the assay with eotaxin-3 release (setting [1]) worked out at 31.7 nM.
Still for that read-out and setting: to `CNc1ccc(-c2ccnc3c2cc([C@H](C)N2CC=C(c4c(C)cc(C(=O)N5CCC(CN6CCN(Cc7ccc8c(c7)C7(CC7)C(=O)N8C7CCC(=O)NC7=O)C[C@@H]6C)CC5)cc4F)CC2)n3C)cn1` (stereo partly drawn) [Example 3h20, 3-(5′-(((S)-4-((1-(3-fluoro-5-methyl-4-(1-((S)-1-(1-methyl-4-(6-(methylamino)pyridin-3-yl)-1H-pyrrolo[2,3-b]pyridin-2-yl)ethyl)-1,2,3,6-tetrahydropyridin-4-yl)benzoyl)piperidin-4-yl)methyl)-3-methylpiperazin-1-yl)methyl)-2′-oxospiro[cyclopropane-1,3′-indolin]-1′-yl)piperidine-2,6-dione] belongs 3.6 nM.
For the molecule `CC[C@H]1CN(Cc2ccc3c(c2)n(C)c(=O)n3[C@@H]2CCC(=O)NC2=O)CCN1CC1CCN(C(=O)c2ccc(C3CCN([C@@H](C)c4cc5c(-c6ccc(N)nc6)ccnc5n4C)CC3)cc2)CC1` (single isomer, unassigned) [Example 3e57], in the assay with eotaxin-3 release (setting [1]), the EC50 was 4.4 nM.
The same measure, in the same setting: to `C[C@@H](c1cc2c(-c3ccc(N)nc3)ccnc2n1C)N1CCC(c2ccc(C(=O)N3CCC(CN4CCN(c5cc6c(cc5F)n(C5CCC(=O)NC5=O)c(=O)n6C)CC4)CC3)cc2)CC1` (stereo partly drawn) [Example 3h44, 3-(5-(4-((1-(4-(1-((S)-1-(4-(6-aminopyridin-3-yl)-1-methyl-1H-pyrrolo[2,3-b]pyridin-2-yl)ethyl)piperidin-4-yl)benzoyl)piperidin-4-yl)methyl)piperazin-1-yl)-6-fluoro-3-methyl-2-oxo-2,3-dihydro-1H-benzo[d]imidazol-1-yl)piperidine-2,6-dione] belongs 19.4 nM; to `CNc1ccc(-c2ccnc3c2cc([C@H](C)N2CC=C(c4c(F)cc(C(=O)N5CCC(CN6CCN(Cc7ccc8c(c7)C7(CC7)C(=O)N8C7CCC(=O)NC7=O)C[C@@H]6C)CC5)cc4F)CC2)n3C)cn1` (stereo partly drawn) [Example 3h36, 3-(5′-(((S)-4-((1-(3,5-difluoro-4-(1-((S)-1-(1-methyl-4-(6-(methylamino)pyridin-3-yl)-1H-pyrrolo[2,3-b]pyridin-2-yl)ethyl)-1,2,3,6-tetrahydropyridin-4-yl)benzoyl)piperidin-4-yl)methyl)-3-methylpiperazin-1-yl)methyl)-2′-oxospiro[cyclopropane-1,3′-indolin]-1′-yl)piperidine-2,6-dione], 8.3 nM.
For the molecule `CCCS(=O)(=O)N[C@H]1C[C@@H](N(C)c2ncnc3[nH]ccc23)C1` [abroticinib, abrocitinib, reference compound], the EC50 in the assay with eotaxin-3 release (hIL-4 (E. coli) stimulation, read-out: EC50 of inhibition of eotaxin-3 release (reference compound)) was around 450 nM. Moreover, the Emax in the assay with eotaxin-3 release (hIL-4 (E. coli) stimulation, read-out: Emax of inhibition of eotaxin-3 release) is around 100%.
Consider `CC[C@H]1CN(Cc2ccc3c(c2)n(C)c(=O)n3[C@H]2CCC(=O)NC2=O)CCN1CC1CCN(C(=O)c2ccc(C3CCN([C@@H](C)c4cc5c(-c6ccc(N)nc6)ccnc5n4C)CC3)cc2)CC1` (single isomer, unassigned) [Example 3e59], for which the EC50 with eotaxin-3 release (setting [1]) is 8.4 nM.
Still for that read-out and setting: to `CNc1ccc(-c2ccnc3c2cc(CN2CC=C(c4c(F)cc(C(=O)N5CCC(CN6CCN(Cc7ccc8c(c7)C7(CC7)C(=O)N8C7CCC(=O)NC7=O)C[C@@H]6C)CC5)cc4F)CC2)n3C)cn1` (stereo partly drawn) [Example 3h37, 3-(5′-(((S)-4-((1-(3,5-difluoro-4-(1-((1-methyl-4-(6-(methylamino)pyridin-3-yl)-1H-pyrrolo[2,3-b]pyridin-2-yl)methyl)-1,2,3,6-tetrahydropyridin-4-yl)benzoyl)piperidin-4-yl)methyl)-3-methylpiperazin-1-yl)methyl)-2′-oxospiro[cyclopropane-1,3′-indolin]-1′-yl)piperidine-2,6-dione] belongs 95.5 nM.
